Key:
Format in all cases: cell-based, murine
tyrosinase [1] = test: qRT-PCR of tyrosinase mRNA; conditions: versus non-treated controls, B16F10 cells
Method: (§1) The total RNAs from the cells were purified using the RiboEx Total RNA solution (GeneAll Biotechnology, Seoul, Korea) and the cDNA was synthesized from the total RNA (2 µg) using SuPrimeScript RT Premix with random hexamer (GeNet Bio, Daejeon, Korea), according to the manufacturers’ instructions. Real-time qPCR was performed using SensiFASTTM SYBR® No-ROX dye (Bioline, London, UK) and a CFX Connect System (Bio-Rad Laboratories, Hercules, CA, USA). The qRT-PCR primers that are specifically for tyrosinase, TRP-1, TRP-2, and β-actin were obtained from Bioneer Inc. (Daejeon, Korea). The relative gene expressions were calculated using the standard curve method and β-actin as the internal control.

tyrosinase [2] = test: Western blot of cytosolic tyrosinase protein; conditions: 2.5–20 µM, 24 h, cytosolic fraction, B16F10 cells
Method: B16F10 cells were treated with five concentrations (0, 2.5, 5, 10, and 20 µM) of analog 2 for 24 h, washed twice with cold PBS, and then harvested. Pellets were then suspended in buffer A [NaBu, β-glycerophosphate, 1 M HEPES, 100 mM MgCl, 500 mM DTT, 100 mM NaF, 10 mM Na-orthovanadate, pepstatin, aprotinin, leupeptin, 1% NP-40, and PMSF], incubated on ice for 20 min, and then centrifuged at 12,000 rpm for 10 min at 4 °C. The supernatants that were obtained contained cytosolic fractions. The pellets were resuspended in buffer B [NaBu, β-glycerophosphate, 1 M HEPES, 5 M NaCl, 10 mM Na-orthovanadate, pepstatin, aprotinin, leupeptin, 100 mM NaF, 100 mM EDTA, and PMSF], incubated on ice for 30 min, and then centrifuged at 12,000 rpm for 20 min at 4 °C. The resultant supernatants contained nuclear fractions.
Protein concentrations were determined using a BCA™ protein assay kit (Pierce, Rockford, IL, USA). Briefly, lysed samples were boiled for 10 min in gel-loading buffer (0.125 M Tris-HCl, pH 6.8, 4% SDS, 10% 2-mercaptoethanol, and 0.2% bromophenol blue) at a volume ratio of 1:1. […] The western blot data were quantified using CS Analyser 3.2 (Densitograph) image analysis software (http://www.attokorea.co.kr, accessed on 4 March 2022).

TRP-2 = test: qRT-PCR of TRP-2 mRNA; conditions: versus non-treated controls, B16F10 cells
Method: as §1

TRP-1 = test: qRT-PCR of TRP-1 mRNA; conditions: versus non-treated controls, B16F10 cells
Method: as §1

Question: Which “tyrosinase mRNA expression level” value (tyrosinase [1]) does the source give for `O=C1/C(=C/c2ccc(O)c(O)c2)SC(=S)N1c1ccccc1` [Analog 2, (Z)-5-(3,4-Dihydroxybenzylidene)-3-phenyl-2-thioxothiazolidin-4-one] here?
Answer: Its value is “significantly and concentration-dependently reduced”.

Question: What about the tyrosinase protein level (tyrosinase [2]) of the same compound?
Answer: Its tyrosinase protein level is “significantly and concentration-dependently reduced”.

Question: What about the “TRP-2 mRNA expression level” value (TRP-2) of the same compound?
Answer: The value was “significantly and concentration-dependently reduced”.

Question: What about the “TRP-1 mRNA expression level” value (TRP-1) of the same compound?
Answer: The value was “significantly and concentration-dependently reduced”.
